Measurements as given in US10156566B2, “Detoxification of microbial virulence factors in oral cavity” (priority 2015, dated 2018).
Where “and” joins values, the source holds several entries; their conditions need not be identical. Equal entries are not always repeated. Where two headings read alike, the source gives them in different places.

What was measured:
E. coli LPS [1] = assay type: biochemical
Procedure: (§1) The Limulus Amebocyte Lysate Assay (LAL) is an assay to determine the total amount of lipopolysaccharide (LPS) in the sample tested (Pierce LAL Chromogenic Endotoxin Quantitation Kit, ThermoFischer Scientific, Waltham, Mass.). The assay was performed following manufacturer's instruction. Ninety-six-well microplates were first equilibrated in a heating block for 10 min at 37° C. Fifty μl each of standard or sample was dispensed into the microplate wells and incubated with the plate covered for 5 min at 37° C. Then 50 μl LAL was added to each well.
(§2) Plates were shaken gently and incubated for 10 min at 37° C. 100 μl of chromogenic substrate was added and incubated for 6 min at 37° C.
(§3) The Thermo Scientific Pierce LAL Chromogenic Endotoxin Quantitation Kit is a quantitative endpoint assay for the detection of LPS, which catalyzes the activation of a proenzyme in the modified Limulus Amebocyte Lysate (LAL). The activated proenzyme then splits p-Nitroaniline (pNA) from the colorless substrate, Ac-Ile-Glu-Ala-Arg-pNA. […] Then 50 μl LAL was added to each well. Plates were shaken gently and incubated for 10 min at 37° C. 100 μl of chromogenic substrate was added and incubated for 6 min at 37° C.

P. gingivalis LPS 1690 = assay type: biochemical
Procedure: as §1, §2, §3

THP-1 cells = test: LPS stimulated cytokine production in THP-1 cells with citrulline; assay type: cell-based, human; conditions: 0.3 mM to 9 mM; 300 ng/ml LPS; 24 hours
Procedure: Citrulline was purchased from Sigma-Aldrich (St. Louis, Mo.). THP1-Dual™ cells were purchased from Invivogen (San Diego, Calif.). Cells were cultured following the manufacturer's instruction, as described in EXAMPLE 11. For treatment, 0.3 mM to 9 mM of citrulline were first added to the culture medium. […] After 24 hours of treatment, media was collected and analyzed for cytokine production using 9-plex kit (Meso Scale Diagnostics Rockville, Md.).

E. coli LPS [2] = test: Displacement of LPS from binding to BODIPY TR cadaverine (Tables 3, 9, 12, 13); conditions: E. coli LPS 15 μg/ml
TLR4 [3] = target: T1, TLR4 (Homo sapiens, UniProt O00206+Q9Y6Y9); assay type: cell-based; design: host or cells: human HEK 293T cells; conditions: for reduction of P. gingivalis LPS activation on the TLR4 reporter system: P. gingivalis LPS 500 ng/ml
Target sequence in this assay (O00206 24-839): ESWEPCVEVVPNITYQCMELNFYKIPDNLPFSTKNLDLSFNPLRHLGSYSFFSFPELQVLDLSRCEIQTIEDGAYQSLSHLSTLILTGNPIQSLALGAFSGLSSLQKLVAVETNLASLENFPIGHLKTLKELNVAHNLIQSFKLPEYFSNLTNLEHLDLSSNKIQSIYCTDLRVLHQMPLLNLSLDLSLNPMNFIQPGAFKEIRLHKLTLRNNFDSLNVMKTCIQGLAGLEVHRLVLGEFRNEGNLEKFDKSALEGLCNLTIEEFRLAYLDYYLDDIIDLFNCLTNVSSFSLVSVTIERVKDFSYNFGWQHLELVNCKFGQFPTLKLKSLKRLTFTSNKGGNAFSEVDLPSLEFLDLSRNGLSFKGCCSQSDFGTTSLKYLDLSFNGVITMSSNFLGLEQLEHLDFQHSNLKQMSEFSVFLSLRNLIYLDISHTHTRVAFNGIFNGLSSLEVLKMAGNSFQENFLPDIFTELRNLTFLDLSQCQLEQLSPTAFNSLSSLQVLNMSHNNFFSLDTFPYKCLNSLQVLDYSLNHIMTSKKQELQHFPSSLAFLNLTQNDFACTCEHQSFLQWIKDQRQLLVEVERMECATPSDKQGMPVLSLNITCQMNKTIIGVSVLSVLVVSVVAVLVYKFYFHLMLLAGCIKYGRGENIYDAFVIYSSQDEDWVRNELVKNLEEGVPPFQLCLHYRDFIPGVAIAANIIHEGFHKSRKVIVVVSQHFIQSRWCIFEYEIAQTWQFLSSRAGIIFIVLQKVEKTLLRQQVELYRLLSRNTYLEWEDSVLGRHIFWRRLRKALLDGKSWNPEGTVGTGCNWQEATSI
Target sequence in this assay (Q9Y6Y9 17-160 limits assumed): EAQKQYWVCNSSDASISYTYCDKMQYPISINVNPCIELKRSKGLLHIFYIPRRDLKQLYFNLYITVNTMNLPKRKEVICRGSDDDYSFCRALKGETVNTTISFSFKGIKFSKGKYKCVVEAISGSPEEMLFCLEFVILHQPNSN
From the text: The cell line is named here as TLR4-SEAP. The reporter gene encodes a secreted enzyme, called embryonic alkaline phosphatase or SEAP. The SEAP reporter is placed under the control of an IL-12 p40 minimal promoter fused to five NF-κB and AP-1-binding sites. Furthermore, the TLR4-SEAP cell line also contains a CD14 co-receptor gene, which is needed to transfer LPS to TLR4 receptors. The recombinant TLR binds its ligand, or distinct pathogen-associated molecule, initiates a chain of responses, leading to recruitment of NFkB and API transcription factors to the reporter gene promoter, which induce expression of SEAP.
For treatment, wells of a 96-well plate were seeded with 10,000 cells/well in 100 μL of growth medium. […] On day 4, medium was changed to assay medium (90 μl), which is the DMEM medium without fetal calf serum. […] 10 μl of the bacteria, LPS and culture medium of bacterial growth were added to the TLR4-SEAP cells. Samples were taken 24 hours later, following addition of LPS, bacteria, and culture medium. Expression of the reporter gene (SEAP) was quantified with a commercially available kit (SEAP Reporter Gene Assay of Cayman Chemical Co., Ann Arbor, Mich.).
EC50 was calculated using GraphPad Prism software (GraphPad Software, La Jolla, Calif.).
Tests were conducted to understand whether stannous fluoride could reduce LPS's ability to trigger proinflammatory responses in host cells.

TLR2 = target: T2, TLR2 (Homo sapiens, UniProt O60603); assay type: cell-based; conditions: stannous 1000 uM; P. gingivalis LPS
T2 construct: host or cells: human HEK 293T cells
From the text: The cell line is named here as TLR2-SEAP. The reporter gene encodes a secreted enzyme, called embryonic alkaline phosphatase or SEAP. The SEAP reporter is placed under the control of the interferon-β minimal promoter fused to five NFkB and AP-1-binding sites. Furthermore, a CD14 co-receptor gene was transfected into the reporter gene cells expressing TLR2, as CD14 has been identified as a co-receptor for TLR2 ligands to enhance the TLR response. The CD14 co-receptor is needed to transfer LTA to TLR2 receptors. The recombinant TLR2 binds its ligand, or distinct pathogen-associated molecule, initiates a chain of responses, leading to recruitment of NFkB and API transcription factors to the reporter gene promoter, which induce expression of SEAP.
For treatment with LTA, wells of a 96-well plate were seeded with 10,000 cells/well in 100 μL of growth medium. […] On day 4, medium (100 μL) was changed to DMEM medium without fetal calf serum. […] Samples were taken 24 hours later, following addition of samples. Expression of the reporter gene (SEAP) was quantified with a commercially available kit (SEAP Reporter Gene Assay of Cayman Chemical Co., Ann Arbor, Mich.).

NFkB-SEAP reporter gene = test: THP1-Dual reporter cells, NFkB-SEAP; assay type: cell-based, human; conditions: dose dependent
From the text: (§4) THP1 NFkB-SEAP and IRF-Lucia™ Reporter Monocytes were purchased from Invivogen, San Diego, Calif. THP1-Dual cells were derived from the human THP-1 monocyte cell line by stable integration of two inducible reporter constructs. THP1-Dual cells feature the Lucia gene under the control of an ISG54 (interferon-stimulated gene) minimal promoter in conjunction with five interferon-stimulated response elements. THP1-Dual cells also express a SEAP reporter gene driven by an IFN-b minimal promoter fused to five copies of the NF-kB consensus transcriptional response element and three copies of the c-Rel binding site. As a result, THP1-Dual cells allow the simultaneous study of the NFkB pathway, by monitoring the activity of SEAP, and the interferon regulatory factor (IRF) pathway, by assessing the activity of Lucia (IRF-Luc). Both reporter proteins are readily measurable in the cell culture supernatant.
(§5) Cells were passed every 3 to 4 days by inoculating 300,000-500,000 cells/ml into a fresh T75 flask with 15 ml of fresh growth medium. […] After incubation for 18 hours at 37° C. and 5% CO2, secreted luciferase and SEAP were quantified with commercially available assay kits (QUANTI-Luc of Invivogen, San Diego, Calif. for luciferase; SEAP Reporter Gene Assay of Cayman Chemical Co., Ann Arbor, Mich. for SEAP).

[4] = test system: IRF-luciferase reporter gene; test: THP1-Dual reporter cells, IRF-Lucia luciferase; assay type: cell-based, human
From the text: as §4, §5

E. coli LPS [5] = test system: E. coli LPS
Procedure: 0.7 ul of the sample solution was spotted on a MALDI plate, air-dried, and analyzed in negative ion mode using a MALDI-TOF/TOF 4800 plus system (AB-Sciex, Framingham, Mass., USA). Typical data acquisition uses mass scan range 500-3000 Da and a laser power of 4500. Data was collected in an automated fashion using random sampling over the sample spot with 250 shots per subspectrum and a total of 2500 shots per spectrum.

TLR4 [6] = target: T1, TLR4; test: cell-based; assay type: cell-based; design: host or cells: HEK-Blue-hTLR4 (HEK 293T); conditions: for Average fluorescence intensity (FI): Control 1027
Target sequence in this assay (O00206 24-839): as the sequence (O00206 24-839) above
Target sequence in this assay (Q9Y6Y9 17-160): as the sequence (Q9Y6Y9 17-160 limits assumed) above
Procedure: Stannous fluoride, Cetylpyridium chloride (CPC) and Triclosan were purchased from Sigma-Aldrich, St. Louis, Mo. […] The growth medium: DMEM, with 4.5 g/l glucose, supplemented 10% fetal bovine serum, 50 U/ml penicillin and streptomycin, 100 μg/ml Normocin, and 2 mM L-glutamine, purchased from Thermo Fisher, Waltham, Mass.

human primary monocytes = test: LPS-stimulated cytokine production in human primary monocytes; assay type: cell-based
Procedure: The primary human monocytes were purchased from Astarte Biologics (Bothell, Wash.). […] The medium was harvested at 24 hours after adding LPS and SnF2, and analyzed for proinflammatory cytokines in a kit following manufacturer's instruction (Meso Scale Diagnostics, Rockville, Md.).

TLR5 = target: T3, TLR5 (Homo sapiens, UniProt O60602); test: TLR5-NFkB-SEAP reporter gene assay in HEK 293T cells; assay type: cell-based
T3 construct: host or cells: human HEK 293T cells
Procedure: The cell line was named as TLR5-NFkB-SEAP.
S. subtilis and S. aureus flagellin were added at a range of concentration from 0.97 ng to 1 μg/ml. […]

T3 sequence (O60602 21-858): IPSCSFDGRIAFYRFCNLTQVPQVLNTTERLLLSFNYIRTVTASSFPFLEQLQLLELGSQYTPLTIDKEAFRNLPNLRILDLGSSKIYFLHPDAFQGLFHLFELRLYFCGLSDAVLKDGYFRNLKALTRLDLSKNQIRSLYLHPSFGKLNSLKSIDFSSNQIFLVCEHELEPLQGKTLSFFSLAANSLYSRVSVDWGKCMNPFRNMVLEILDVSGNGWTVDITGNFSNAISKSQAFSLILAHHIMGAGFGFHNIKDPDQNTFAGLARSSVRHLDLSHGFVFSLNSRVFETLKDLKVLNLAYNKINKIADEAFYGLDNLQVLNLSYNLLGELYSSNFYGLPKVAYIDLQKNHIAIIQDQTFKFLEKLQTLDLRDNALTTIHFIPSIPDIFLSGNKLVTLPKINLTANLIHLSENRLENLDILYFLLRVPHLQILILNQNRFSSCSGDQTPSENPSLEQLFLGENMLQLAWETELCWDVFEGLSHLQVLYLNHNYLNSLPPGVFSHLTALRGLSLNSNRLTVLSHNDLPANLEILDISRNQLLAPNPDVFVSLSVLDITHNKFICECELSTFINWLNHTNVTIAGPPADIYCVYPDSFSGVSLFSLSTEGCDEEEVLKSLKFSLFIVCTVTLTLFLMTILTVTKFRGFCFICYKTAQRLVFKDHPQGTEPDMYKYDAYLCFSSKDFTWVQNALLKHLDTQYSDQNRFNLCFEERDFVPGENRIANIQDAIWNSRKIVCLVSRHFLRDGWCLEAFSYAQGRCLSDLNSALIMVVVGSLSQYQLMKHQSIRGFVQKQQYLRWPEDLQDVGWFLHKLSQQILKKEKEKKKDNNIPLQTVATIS
T2 sequence (O60603 21-784): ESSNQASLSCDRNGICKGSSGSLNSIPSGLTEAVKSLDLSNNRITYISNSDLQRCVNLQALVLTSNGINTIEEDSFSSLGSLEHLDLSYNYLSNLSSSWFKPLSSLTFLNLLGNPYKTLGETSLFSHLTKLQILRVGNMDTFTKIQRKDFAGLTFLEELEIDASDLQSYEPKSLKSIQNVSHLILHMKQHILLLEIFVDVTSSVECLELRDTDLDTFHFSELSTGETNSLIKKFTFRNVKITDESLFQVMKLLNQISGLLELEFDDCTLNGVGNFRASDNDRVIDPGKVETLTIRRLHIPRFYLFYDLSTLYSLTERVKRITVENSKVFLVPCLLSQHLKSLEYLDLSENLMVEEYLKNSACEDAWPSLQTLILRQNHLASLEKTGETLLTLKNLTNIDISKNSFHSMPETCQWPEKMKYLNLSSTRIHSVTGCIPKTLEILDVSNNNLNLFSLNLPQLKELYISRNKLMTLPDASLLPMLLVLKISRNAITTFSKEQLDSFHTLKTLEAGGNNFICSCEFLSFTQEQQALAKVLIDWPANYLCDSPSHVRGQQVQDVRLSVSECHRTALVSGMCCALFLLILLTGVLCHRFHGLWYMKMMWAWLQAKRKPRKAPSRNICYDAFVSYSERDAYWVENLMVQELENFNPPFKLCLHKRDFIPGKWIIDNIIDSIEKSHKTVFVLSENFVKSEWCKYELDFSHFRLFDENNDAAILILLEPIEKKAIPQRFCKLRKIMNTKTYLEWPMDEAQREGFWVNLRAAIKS

Molecule	LPS displacement % Mean (E. coli LPS [2])	LPS displacement % Reading 1 (E. coli LPS [2])	LPS displacement % Reading 2 (E. coli LPS [2])	LPS displacement % Reading 3 (E. coli LPS [2])	inhibition (Lipopolysaccharide)	further results
[O-]n1ccccc1=S.[O-]n1ccccc1=S.[Zn+2] [1-Hydroxypyridine-2-thone zinc salt]						Inhibition of LAL activity % (E. coli LPS [1]): 2% and 6%; Inhibition of LAL activity % (P. gingivalis LPS 1690): 0%
NC(=O)NCCC[C@H](N)C(=O)O [Citrulline]						effect on P. gingivalis LPS 1690 stimulated proinflammatory cytokine production (IL-6, TNF-α, IL-12p70, IL-10, IL-2, IFN-r, IL-1β) (THP-1 cells): inhibited
[Cu+].[I-] [Copper(I) iodide]	18%	23%	12%	20%		
C=CC[N+](C)(C)CC=C.[Cl-] [Diallyldimethylammonium chloride]	35%	40%	38%	28%		
CCCCCCCCCCCCCCCCCC(=O)NCCN(CC)CC [Diethylaminoethyl stearamide]	66%	77%	62%	58%	97.4%	
CC(C)CCOC(=O)c1ccccc1 [Isopentyl benzoate]	18%	22%		13%		
CCCCC/C=C\C/C=C\CCCCCCCC(=O)OC [Methyl linoleate]	88%	~100%	53%	~100%	36.9%	
CCCCCCCCCCCCCC[n+]1ccc(C)cc1.[Cl-] [Myristyl-γ-picolinium chloride]	~100%	~100%	~100%	~100%	96.2% and 96%	
CCCCCCCCCCCCN(C)C [N,N-Dimethyldodecylamine]	22%	36%	18%	13%		
CCCCCCCCCCCC[n+]1ccccc1.[Cl-] [N-Laurylpyridinium chloride]	60%	66%	56%	59%	96.5%	
CCCCCCCCCCCCCC(=O)NCC(=O)O [N-Myristoylglycine]	76%	~100%	39%	74%	91.4%	
CCCCCCCCCCCCCCCCCC(=O)OCCNC(=O)C[n+]1ccccc1.[Cl-] [Steapyrium chloride]	~100%	~100%	100%	~100%	100%	
CCCCCCCCCCCCCCCCCC(=O)NCCCN(C)C [Stearylamidopropyldimethylamine]	77%	85%	71%	74%	83.8%	
[F][Sn][F] [Tin (II) fluoride]						reduction of P. gingivalis LPS activation on the TLR4 reporter system (TLR4 [3]; 3.2 mM): about 50%; reduction of P. gingivalis LPS activation on the TLR4 reporter system (TLR4 [3]; […]): about 50%; level of E. coli induction of TLR-4 (TLR4 [3]; stannous 500 uM or higher, 100 ng/ml E. coli LPS): decreased; level of P. gingivalis induction of TLR-2 (TLR2): decreased; Inhibition of LAL activity % (E. coli LPS [1]): 92% and 87%; Displacement % of LPS from binding to BODIPY TR cadaverine (E. coli LPS [2]; 0.63 mM): 12.69%; expression of the NFKB-SEAP reporter gene by LPS and LTA in THP-1 dual cells (NFkB-SEAP reporter gene): inhibited; luciferase production in THP-1 dual cells stimulated by E. coli LPS [4]: inhibited; binding to E. coli LPS (MALDI-TOF) (E. coli LPS [5]): binds to E. coli LPS; fluorescence intensity of labeled LPS on HEK-Blue-hTLR4 cells (TLR4 [6]): reduced fluorescence intensity significantly; % of control (TLR4 [6]; 500 μM): 64.5%; Average fluorescence intensity (FI) (TLR4 [6]; 500 μM): 662; cytokine production stimulated by LPS in human primary monocytes (human primary monocytes; 100 ng E. coli LPS or P. gingivalis LPS 1690, 24 hours): inhibited; suppression of LPS on IL-8 production in human primary monocytes (human primary monocytes; dose-dependent): reversed; Inhibition of LAL activity % (P. gingivalis LPS 1690): 60% and 49%
Oc1cc(Cl)ccc1Oc1ccc(Cl)cc1Cl [Triclosan (irgasan)]						Inhibition of LAL activity % (E. coli LPS [1]): 10% and 0%; Average fluorescence intensity (FI) (TLR4 [6]; 500 μM): 1021; remaining activity at 500 µM (TLR4 [6]; HEK-Blue hTLR4, read-out: % of control): 99.4%; Inhibition of LAL activity % (P. gingivalis LPS 1690): 0%
C=CCCCCCCCCC=O [Undecylenic aldehyde]	22%	29%		15%		
CCCCCC(C=O)=Cc1ccccc1 [alpha-Amylcinnamaldehyde]	15%	17%		13%		
CCCCCCCC/C=C\CCCCCCCC(=O)O [cis-Oleic acid]	31%	54%		9%	61%	
O=C([O-])C(=O)[O-].[K+].[K+] [potassium oxalate]						Inhibition of LAL activity % (E. coli LPS [1]): 1% and 6%; Inhibition of LAL activity % (P. gingivalis LPS 1690): 8% and 0%
[F-].[Na+] [sodium fluoride]						Inhibition of LAL activity % (E. coli LPS [1]): 4% and 5%; Inhibition of LAL activity % (P. gingivalis LPS 1690): 0%
[Cl][Sn][Cl] [stannous chloride]						Inhibition of LAL activity % (E. coli LPS [1]): 89% and 65%
O.O.O=C([O-])CC(O)(CC(=O)[O-])C(=O)[O-].O=C([O-])CC(O)(CC(=O)[O-])C(=O)[O-].[Zn+2].[Zn+2].[Zn+2] [zinc citrate, dihydrate]						Inhibition of LAL activity % (E. coli LPS [1]; citrate, dihydrate): 104% and 82%; Inhibition of LAL activity % (P. gingivalis LPS 1690; citrate, dihydrate): 104% and 57%
Flagellin from B. subtilis: flagellin from B. subtilis						EC50 of flagellin on TLR5 (TLR5; at 5 hours): 0.02 ng/mL; EC50 of flagellin on TLR5 (TLR5; at 23 hours): 0.014 ng/mL
iron(iii) chloride hexahydrate	~100%	~100%	100%	~100%	58.1%	
